Data on 1 molecule can be found in patent US9469613B2, “(N-(cyanomethyl)-4-(2-(4-morpholinophenylamino)pyrimidin-4-yl)benzamide” (Gilead Sciences, Inc., priority 2014, dated 2016).

Where a name gives a salt, the structure may show the parent alone.

A short description of this data set: Solid form hygroscopicity and stability. The settings on record: conditions suitable for manufacturing and/or storage. The data set is classed as physicochemical. On the procedure:
Dynamic Vapor Sorption: The hygroscopicity of N-(cyanomethyl)-4-(2-(4-morpholinophenylamino)pyrimidin-4-yl)benzamide dihydrochloride monohydrate Form II was evaluated at room temperature using a dynamic vapor sorption (DVS) instrument (TGA Q5000 TA Instruments, New Castle, Del.). Water adsorption and desorption were studied as a function of relative humidity (RH) over the range of 0 to 90% at room temperature. The humidity in the chamber was increased from the initial level 50% RH) to 60% RH and held until the solid and atmosphere reached equilibration. The equilibrium test was continued until passed or expired after 10 hours. At this point, RH was raised 10% higher and the process was repeated until 90% RH was reached and equilibrated. During this period, the water sorption was monitored. For desorption, the relative humidity was decreased in a similar manner to measure a full sorption/desorption cycle. All experiments were operated in dm/dt mode (mass variation over time) to determine the equilibration endpoint. Approximately 4 mg of solid CYT-0387 was used. Data analysis was conducted using Universal Analysis 2000 Version 4.7A (TA Instruments, New Castle, Del., USA).

As to `N#CCNC(=O)c1ccc(-c2ccnc(Nc3ccc(N4CCOCC4)cc3)n2)cc1` [CYT-0387 Form II, N-(cyanomethyl)-4-(2-(4-morpholinophenylamino)pyrimidin-4-yl)benzamide dihydrochloride monohydrate Form II], the “thermodynamic stability of the dihydrochloride salt form” value is reported as “thermodynamically stable form”.
